Experimental data taken from patent US12359242B2, “Chemical platform assisted proximity capture (CAP-C)” (The University of Chicago, priority 2018, dated 2025).

Tested on: mouse embryonic stem cells (mESCs)
Test: CAP-C with G5 dendrimers on mESC samples treated with transcription elongation inhibitors
Format: cell-based
Conditions: for peaks originally called in the control sample that remained: second time point; for contacts in 10 kb resolution contact matrix: mESC; for contact probability between distance-scaled bins 2-7, loop and non-loop domains: versus G5-control
Description: The inventors then diffuse dendrimers into the cell nucleus and expose these cells to UV irradiation (FIG. 1A). The formaldehyde fixing is then reversed, and DNA-bound proteins are removed with protease to expose all DNA motifs, the dendrimer-DNA complexes are subsequently purified with ethanol precipitation. The purified dendrimer-DNA complexes are then subjected to MboI restriction digestion and end-filling with biotin-bearing DNA, followed by ligation under ultra-diluted solution, biotin capture and high-throughput sequencing (FIG. 1A). Dendrimers with a defined size were used for each CAP-C experiment.
Inhibition of transcription reduces supercoiling and leads to global loss of chromatin contacts. Chromatin topology highly associates with supercoiling, and supercoiling domains have been proposed and identified. […] Motivated by a relationship between transcription-induced supercoiling and domain organization, the inventors next examined whether transcription inhibition affects chromatin architecture. The inventors explored two different transcription elongation inhibitors, flavopiridol and α-amanitin. Reduced levels and rates of supercoiling have been observed upon transcription inhibition. Thus, the inventors performed time-series CAP-C experiments using G5 dendrimers to crosslink mESC samples treated with 2 μM flavopiridol for 1 h and 6 h, as well as samples treated with 4 μg/ml of α-amanitin for 6 h and 12 h, respectively.
The signals of these peaks were, however, weakly attenuated (FIG. 5A). Because these inhibitor-treated and G5-control samples are low-resolution contact maps, the inventors applied Aggregate Peak Analysis (APA) of the peaks called in the deep sequenced CAP-C dataset. […] The inventors plotted the mean contact maps of 103-263 loop-domains (median length: 170 Kb) shared between the control and inhibitor-treated samples by rescaling them into 10 bins (i.e. contact domains in G5-control overlapping loops that are shared between control and inhibitor-treated samples). […] The inventors also quantified these maps into a contact probability vs distance-scaled bins line-plot for all loop domains, non-loop domains and randomly permutated domains. […] Increasing contact frequencies identified at corners of inhibitor-treated loop-domains (bins 8-10) indicate the presence as well as attenuation of peaks from G5-control (FIG. 5E). This is in stark contrast to the absence of such an increase in non-loop domains and randomly permutated domain boundaries.

SMILES	APA scores versus control (6 h and 12 h treated samples)	peaks originally called in the control sample that remained (12 hr treatment)	contacts in 10 kb resolution contact matrix (4 μg/ml α-amanitin for 6 h and 12 h)	contact probability between distance-scaled bins 2-7, loop and non-loop domains	peaks originally called in the control sample that remained (6 hr treatment)	loops (APA and meta-analysis) (flavopiridol-treated samples)	contacts in 10 kb resolution contact matrix (2 μM flavopiridol for 1 h and 6 h)	contacts over 1 Mb (relative contact frequency vs distance) (transcription inhibitor-treated vs control)
CC[C@H](C)[C@@H]1NC(=O)CNC(=O)[C@@H]2Cc3c([nH]c4cc(O)ccc34)[S+]([O-])C[C@@H](NC(=O)CNC1=O)C(=O)N[C@@H](CC(N)=O)C(=O)N1C[C@H](O)C[C@H]1C(=O)N[C@@H]([C@@H](C)[C@@H](O)CO)C(=O)N2 (stereo in doubt) [α-amanitin]	greater	more than half	profound decrease in contacts	general decrease	–	–	–	–
CN1CC[C@H](c2c(O)cc(O)c3c(=O)cc(-c4ccccc4Cl)oc23)[C@H](O)C1 [flavopiridol]	–	–	–	same trends	more than half	attenuated but preserved	profound decrease in contacts	slightly strong depletion
